Measured values taken from patent publication US12479845B2, “Imidazopyridine derivative compounds and use of same” (HANMI PHARM. CO., LTD., priority 2019, dated 2025).

How the values were obtained:
LSD1 = LSD1 (Homo sapiens (Human), UniProt O60341); assay: Biochemical analysis of LSD1 histone demethylase inhibition (BPS Bioscience LSD1 fluorescence analysis kit, HRP/Amplex Red); conditions: demethylation of Lys4 of histone H3
Method: The biochemical inhibition activity of the synthesized compounds on LSD1 was measured. The activity measurement was performed using LSD1 fluorescence analysis kit (available from BPS Bioscience Co., Ltd., Catalog No: 50106). This analysis kit is designed to measure activity of LSD1 enzyme. H2O2 generated upon demethylation of Lys4 moiety of histone H3 by LSD1 is reacted with HRP/Amplex Red reagent to form fluorescent Resorufin, which is measured by this kit, thereby confirming demethylation.
The results are expressed as an IC50 value. As for a control, GSK2879552 (available from GlaxoSmithKline USA) was used.

NCI-H1417 cells = assay: Cell growth suppression test (CellTiter-Glo Luminescent Cell Viability Assay, 10 days treatment); type: cell-based; conditions: Homo sapiens, 240 h, treated for 10 days
Method: Cell growth suppression effects of the synthesized compounds on NCI-H1417 cells were identified. The cells were treated with the synthesized compounds for 10 days. Then, in order to test the cell growth suppression, CellTiter-Glo Luminescent Cell Viability Assay (available from Promega, USA) was used. This test is to measure emission signals proportional to the number of ATPs based on a fixed amount of ATPs, which represents the presence of metabolically active cells, thereby determining the number of viable cells. The results are expressed as a Gl50 value. As for a control, GSK2879552 (available from GlaxoSmithKline USA) was used.

SMILES | IC50 (LSD1) | GI50 (NCI-H1417 cells)
N#Cc1ccc(-c2nc3c(N4CCC[C@@H](N)C4)ccnc3n2-c2ccc(C3CC3)cc2F)cc1F [Example 11, (R)-4-(7-(3-aminopiperidine-1-yl)-3-(4-cyclopropyl-2-fluorophenyl)-3H-imidazo[4,5-b]pyridine-2-yl)-2-fluorobenzonitrile] | 21 nM | 24 nM
N#Cc1ccc(-c2nc3c(N4CCC[C@@H](N)C4)ccnc3n2-c2c(F)cc(C3CC3)cc2F)cc1F [Example 18, (R)-4-(7-(3-aminopiperidine-1-yl)-3-(4-cyclopropyl-2,6-difluorophenyl)-3H-imidazo[4,5-b]pyridine-2-yl)-2-fluorobenzonitrile] | 38 nM | 46 nM
N#Cc1ccc(-c2nc3c(N4CCC[C@@H](N)C4)ccnc3n2-c2c(F)cc(N3CCCC3)cc2F)cc1F [Example 19, (R)-4-(7-(3-aminopiperidine-1-yl)-3-(2,6-difluoro-4-(pyrrolidine-1-yl)phenyl)-3H-imidazo[4,5-b]pyridine-2-yl)-2-fluorobenzonitrile] | 29 nM | 18 nM
CO[C@@H]1CCN(c2ccc(-n3c(-c4ccc(C#N)c(F)c4)nc4c(N5CCC[C@@H](N)C5)ccnc43)c(F)c2)C1 [Example 24, 4-(7-((R)-3-aminopiperidine-1-yl)-3-(2-fluoro-4-((R)-3-methoxypyrrolidine-1-yl)phenyl)-3H-imidazo[4,5-b]pyridine-2-yl)-2-fluorobenzonitrile] | 19 nM | 7.6 nM
CO[C@H]1CCN(c2ccc(-n3c(-c4ccc(C#N)c(F)c4)nc4c(N5CCC[C@@H](N)C5)ccnc43)c(F)c2)C1 [Example 25, 4-(7-((R)-3-aminopiperidine-1-yl)-3-(2-fluoro-4-((S)-3-methoxypyrrolidine-1-yl)phenyl)-3H-imidazo[4,5-b]pyridine-2-yl)-2-fluorobenzonitrile] | 38 nM | 4.4 nM
Cc1ccc(-n2c(-c3ccc(C#N)c(F)c3)nc3c(N4CCC[C@@H](N)C4)ccnc32)cc1 [Example 28, (R)-4-(7-(3-aminopiperidine-1-yl)-3-(p-tolyl)-3H-imidazo[4,5-b]pyridine-2-yl)-2-fluorobenzonitrile] | 40 nM | 37 nM
COC1CN(c2ccc(-n3c(-c4ccc(C#N)c(F)c4)nc4c(N5CCC[C@@H](N)C5)ccnc43)c(F)c2)C1 [Example 31, (R)-4-(7-(3-aminopiperidine-1-yl)-3-(2-fluoro-4-(3-methoxyazetidine-1-yl)phenyl)-3H-imidazo[4,5-b]pyridine-2-yl)-2-fluorobenzonitrile] | 30 nM | 32 nM
CC(=O)O[C@H]1CCN(c2ccc(-n3c(-c4ccc(C#N)c(F)c4)nc4c(N5CCC[C@@H](N)C5)ccnc43)c(F)c2)C1 [Example 32, (S)-1-(4-(7-((R)-3-aminopiperidine-1-yl)-2-(4-cyano-3-fluorophenyl)-3H-imidazo[4,5-b]pyridine-3-yl)-3-fluorophenyl)pyrrolidine-3-yl acetate] | 38 nM | 46 nM
N#Cc1ccc(-c2nc3c(N4CCC[C@@H](N)C4)ccnc3n2-c2ccc(N3CC[C@H](Cl)C3)cc2F)cc1F [Example 36, 4-(7-((R)-3-aminopiperidine-1-yl)-3-(4-((S)-3-chloropyrrolidine-1-yl)-2-fluorophenyl)-3H-imidazo[4,5-b]pyridine-2-yl)-2-fluorobenzonitrile] | 26 nM | 26 nM
CCO[C@H]1CCN(c2ccc(-n3c(-c4ccc(C#N)c(F)c4)nc4c(N5CCC[C@@H](N)C5)ccnc43)c(F)c2)C1 [Example 39] | 25 nM | 3.6 nM
CO[C@H]1CCN(c2ccc(-n3c(-c4ccc(C#N)c(F)c4)nc4c(N5CCC[C@H](N)C5)ccnc43)c(F)c2)C1 [Example 62, 4-(7-((S)-3-aminopiperidine-1-yl)-3-(2-fluoro-4-((S)-3-methoxypyrrolidine-1-yl)phenyl)-3H-imidazo[4,5-b]pyridine-2-yl)-2-fluorobenzonitrile] | 36 nM | 20 nM
CO[C@H]1CCN(c2ccc(-n3c(-c4ccc(C#N)c(F)c4)nc4c(N5CCCC[C@@H](N)C5)ccnc43)c(F)c2)C1 [Example 67, 4-(7-((R)-3-aminoazepane-1-yl)-3-(2-fluoro-4-((S)-3-methoxypyrrolidine-1-yl)phenyl)-3H-imidazo[4,5-b]pyridine-2-yl)-2-fluorobenzonitrile] | 30 nM | 2.7 nM

Further compounds by falling IC50 (LSD1), results first:

IC50 (LSD1) | GI50 (NCI-H1417 cells) | SMILES
100 nM | 32 nM | CO[C@H]1CCN(c2ccc(-n3c(-c4ccc(C#N)c(F)c4)nc4c(N5CCC6(CCNC6)CC5)ccnc43)c(F)c2)C1 [Example 60, (S)-2-fluoro-4-(3-(2-fluoro-4-(3-methoxypyrrolidine-1-yl)phenyl)-7-(2,8-diazaspiro[4.5]decane-8-yl)-3H-imidazo[4,5-b]pyridine-2-yl)benzonitrile]
40 nM | 30 nM | N#Cc1ccc(-c2nc3c(N4CCC[C@@H](N)C4)ccnc3n2-c2ccc(N3CCCCC3)cc2F)cc1F [Example 10, (R)-4-(7-(3-aminopiperidine-1-yl)-3-(2-fluoro-4-(piperidine-1-yl)phenyl)-3H-imidazo[4,5-b]pyridine-2-yl)-2-fluorobenzonitrile]
38 nM | 11 nM | CO[C@H]1CCN(c2ccc(-n3c(-c4ccc(C#N)c(F)c4)nc4c(N5CCC6CCNC6C5)ccnc43)c(F)c2)C1 (stereo partly drawn) [Example 61, 2-fluoro-4-(3-(2-fluoro-4-((S)-3-methoxypyrrolidine-1-yl)phenyl)-7-(octahydro-6H-pyrrolo[2,3-c]pyridine-6-yl)-3H-imidazo[4,5-b]pyridine-2-yl)benzonitrile]
37 nM | 64 nM | N#Cc1ccc(-c2nc3c(N4CCC[C@@H](N)C4)ccnc3n2-c2ccc(N3CCCC3)cc2F)cc1F [Example 27, (R)-4-(7-(3-aminopiperidine-1-yl)-3-(2-fluoro-4-(pyrrolidine-1-yl)phenyl)-3H-imidazo[4,5-b]pyridine-2-yl)-2-fluorobenzonitrile]
30 nM | 5.3 nM | N#Cc1ccc(-c2nc3c(N4CCC[C@@H](N)C4)ccnc3n2-c2ccc(N3CC4COCC4C3)cc2F)cc1F (stereo partly drawn) [Example 49, 4-(7-((R)-3-aminopiperidine-1-yl)-3-(2-fluoro-4-(tetrahydro-1H-furo[3,4-c]pyrrole-5(3H)-yl)phenyl)-3H-imidazo[4,5-b]pyridine-2-yl)-2-fluorobenzonitrile]
29 nM | 26 nM | N#Cc1ccc(-c2nc3c(N4CCC[C@@H](N)C4)ccnc3n2-c2ccc(N3CCC(F)(F)C3)cc2F)cc1F [Example 26, (R)-4-(7-(3-aminopiperidine-1-yl)-3-(4-(3,3-difluoropyrrolidine-1-yl)-2-fluorophenyl)-3H-imidazo[4,5-b]pyridine-2-yl)-2-fluorobenzonitrile]
24 nM | 14 nM | CO[C@H]1CCN(c2ccc(-n3c(-c4ccc(C#N)c(F)c4)nc4c(N5CCC(N)C5)ccnc43)c(F)c2)C1 (stereo partly drawn) [Example 64, 4-(7-(3-aminopyrrolidine-1-yl)-3-(2-fluoro-4-((S)-3-methoxypyrrolidine-1-yl)phenyl)-3H-imidazo[4,5-b]pyridine-2-yl)-2-fluorobenzonitrile]
23 nM | 62 nM | N#Cc1ccc(-c2nc3c(N4CCC[C@@H](N)C4)ccnc3n2-c2ccc(N3CCCC3)cc2)cc1F [Example 13, (R)-4-(7-(3-aminopiperidine-1-yl)-3-(4-(pyrrolidine-1-yl)phenyl)-3H-imidazo[4,5-b]pyridine-2-yl)-2-fluorobenzonitrile]
17 nM | 4.8 nM | COC1CCN(c2ccc(-n3c(-c4ccc(C#N)c(F)c4)nc4c(N5CCC[C@@H](N)C5)ccnc43)c(F)c2)C1 (stereo partly drawn) [Example 23, 4-(7-((R)-3-aminopiperidine-1-yl)-3-(2-fluoro-4-(3-methoxypyrrolidine-1-yl)phenyl)-3H-imidazo[4,5-b]pyridine-2-yl)-2-fluorobenzonitrile]
